Laboratory results reported in patent US20060257987A1, “Ppar modulators” (priority 2003, published 2006).
pEC50: −log10 of the molar value.

Columns and labels:
[1] = target: T1, huPPARγ (Homo sapiens, UniProt P37231); assay: Cotransfection assay in CV-1 cells, AOX PPRE luciferase reporter; format: cell-based
T1 construct: expressed in transfected cells; host or cells: CV-1 cells
T1 sequence (P37231 1-505): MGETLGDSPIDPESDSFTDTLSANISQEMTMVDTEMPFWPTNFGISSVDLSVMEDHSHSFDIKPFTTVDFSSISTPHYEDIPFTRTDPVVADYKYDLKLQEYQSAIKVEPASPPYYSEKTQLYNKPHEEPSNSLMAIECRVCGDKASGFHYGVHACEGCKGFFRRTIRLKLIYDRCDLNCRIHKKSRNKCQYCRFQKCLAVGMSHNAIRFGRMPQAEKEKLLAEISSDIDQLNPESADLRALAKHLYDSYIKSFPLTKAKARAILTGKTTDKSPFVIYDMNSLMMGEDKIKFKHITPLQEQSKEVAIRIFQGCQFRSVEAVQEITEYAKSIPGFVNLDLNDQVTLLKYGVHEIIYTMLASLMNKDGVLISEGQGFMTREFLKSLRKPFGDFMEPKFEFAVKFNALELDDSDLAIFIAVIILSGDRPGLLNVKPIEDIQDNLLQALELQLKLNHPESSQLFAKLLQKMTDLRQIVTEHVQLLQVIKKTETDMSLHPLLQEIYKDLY
T1 sequence (P19793 1-462 partner): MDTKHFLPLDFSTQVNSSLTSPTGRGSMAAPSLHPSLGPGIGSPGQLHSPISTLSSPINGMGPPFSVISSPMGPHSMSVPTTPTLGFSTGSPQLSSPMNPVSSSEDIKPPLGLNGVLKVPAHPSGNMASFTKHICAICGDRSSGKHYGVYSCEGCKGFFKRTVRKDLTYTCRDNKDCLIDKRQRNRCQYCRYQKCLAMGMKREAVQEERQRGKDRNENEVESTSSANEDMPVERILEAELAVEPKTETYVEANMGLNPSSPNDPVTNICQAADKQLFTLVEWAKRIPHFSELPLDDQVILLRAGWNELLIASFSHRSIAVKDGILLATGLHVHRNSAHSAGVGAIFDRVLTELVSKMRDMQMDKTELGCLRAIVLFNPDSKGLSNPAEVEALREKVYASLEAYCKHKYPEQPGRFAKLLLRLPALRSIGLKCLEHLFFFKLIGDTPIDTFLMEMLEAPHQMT
Experimental: (§1) Cotransfection assays are carried out in CV-1 cells. The reporter plasmid contains an acylCoA oxidase (AOX) PPRE and TK promoter upstream of the luciferase reporter cDNA. Appropriate PPARs and RXRα are constitutively expressed using plasmids containing the CMV promoter. Since for PPARα and PPARβ, interference by endogenous PPARγ in CV-1 cells is an issue, in order to eliminate such interference, a GAL4 chimeric system is used in which the DNA binding domain of the transfected PPAR is replaced by that of GAL4, and the GAL4 response element is utilized in place of the AOX PPRE. Receptor activation by compounds of the present invention is determined relative to PPARα agonist and PPARγ agonist reference molecules to obtain percent efficacies. EC50 values are determined by computer fit to a concentration-response curve. […] In some cases, a single high concentration of agonist (10 μM) was used.

[2] = target: T2, huPPARα (Homo sapiens, UniProt Q07869); assay: Cotransfection assay in CV-1 cells, GAL4 chimeric system, luciferase reporter
T2 sequence (Q07869 200-468 limits assumed): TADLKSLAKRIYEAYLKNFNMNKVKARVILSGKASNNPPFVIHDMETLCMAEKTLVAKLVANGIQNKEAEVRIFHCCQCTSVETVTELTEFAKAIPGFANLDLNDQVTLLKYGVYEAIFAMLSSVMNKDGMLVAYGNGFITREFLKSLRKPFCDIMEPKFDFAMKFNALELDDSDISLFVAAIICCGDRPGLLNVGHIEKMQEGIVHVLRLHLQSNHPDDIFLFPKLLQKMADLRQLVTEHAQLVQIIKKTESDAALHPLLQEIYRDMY
Experimental: as §1

[3] = target: T3, huPPARδ (Homo sapiens, UniProt Q03181); assay: as above
T3 sequence (Q03181 211-441 limits assumed): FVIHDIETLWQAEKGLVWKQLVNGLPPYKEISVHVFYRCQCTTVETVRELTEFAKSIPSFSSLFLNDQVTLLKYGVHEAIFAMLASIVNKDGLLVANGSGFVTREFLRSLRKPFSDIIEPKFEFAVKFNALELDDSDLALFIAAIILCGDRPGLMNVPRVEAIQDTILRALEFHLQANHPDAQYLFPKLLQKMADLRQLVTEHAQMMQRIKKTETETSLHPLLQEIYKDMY
Experimental: as §1

[4] = tested on: hu apoAI transgenic mice; assay: Evaluation of triglyceride and cholesterol level in HuapoAI transgenic mice; format: in vivo; conditions: 100 mg/kg oral gavage daily for 7 days

With `CCc1ccc(OC(C)CCSc2ccc(OCC(=O)O)c(C)c2)c(C(=O)c2ccccc2)c1` (centres unmarked) [S/O] the Emax ([1]; CV-1, Table 4, percent efficacy relative to reference agonist, read-out: Eff % γ) was 63%, the pEC50 ([1]; Table 4, effect of X/Y, scaffold drawing 255) was 6.58 and the pEC50 [2] was 5.54. It also gave an Emax ([2]; CV-1, read-out: Eff % α) of 39%, a pEC50 [3] of 7.64 and an Emax ([3]; CV-1, read-out: Eff % δ) of 112%.

With `CC(C)OC(=O)C(C)(C)Oc1ccc(C(=O)c2ccc(Cl)cc2)cc1` [fenofibrate] the “high-density lipoprotein cholesterol (HDLc) peak area” value ([4]; FPLC of pooled sera, vehicle 47 to 62 v-sec) was 68-96 v-sec, the “mean percent increase of HDLc” value ([4]; FPLC of pooled sera, versus vehicle) was 48% and the average triglycerides values ([4]; serum, vehicle about 60 to 80 mg/dl) was 33 to 58 mg/dL. The “mean elevation of total serum cholesterol” value ([4]; versus vehicle) was 41% and the “mean reduction of triglycerides” value ([4]; versus vehicle) was 37%.
